Experimental data from publication PMC8086025, “A benzopyran with antiarrhythmic activity is an inhibitor of Kir3.1-containing potassium channels” (The Journal of Biological Chemistry, 2021).
Values joined by “and” are separate entries in the source; they are usually repeats but may differ in a detail not shown here. Equal entries are not always repeated. “Also recorded” adds a separate entry of the source.

Assays:
[1] = target: α1 adrenergic receptor; experiment: Radioligand binding, [3H]prazosin; design: species or system rat
[2] = test system: IKACh; experiment: In vivo ECG, carbachol-induced heart rate slowing in anesthetized mice; conditions: 40 μl of 240 μM via jugular vein
Experimental: We tested the in vivo effects of BP-G1 versus those of BP-G1(SR) on heart rate in anesthetized adult mice (Fig. 8). ECG was continuously recorded. Panel A is the ECG showing that after carbachol (300 μl of 200 μM) was administered, i.p. (red mark), the heart decelerated, with a visible RR prolongation. About 10 min after carbachol injection, BP-G1 was delivered via the jugular vein (40 μl of 240 μM) (green mark). Within 5 min, there was a reversal of carbachol’s effects on the heart rate. Panel B is a control mouse showing heart rate slowing after carbachol administration (red mark).
Mice were anesthetized (1.5% isofluorane), and a 1.2 French octapolar catheter (Millar) with a drug delivery port was placed transvenously, through the jugular vein, into the right atrium. Continuous ECG was recorded using the Animal Bio Amp and PowerLab 4/35 Advanced Instruments apparatus. […] Saline control at the same volume was performed. Results are averages ±SD.

[3] = test system: sigma (non-selective); experiment: Radioligand binding, [3H]DTG, Jurkat cells (endogenous); conditions: listed as Benzopyran-G1
[4] = target: Kv4.3 (Homo sapiens, UniProt Q9UK17); experiment: Cloned cardiac ion channel patch clamp, Kv4.3; format: cell-based
Experimental: For the data shown in Table S6, HEK293 cells expressing Kir3.1/4, Kir6.2/SUR2A (provided by Dr Andrew Tinker), Kir3.4, Kir2.1, and CHO cell lines stably expressing hERG KV1.5, KV4.3, NaV1.5 were maintained in media containing 10% FCS and appropriate selection antibiotic. Cells were grown either in suspension or in T-flasks and routinely passaged. Cells for patch clamping experiments were plated onto glass cover slips prior to use. Cells for automated patch clamping experiments were freshly prepared on each experimental day.
Standard giga-seal whole-cell patch-clamp techniques were performed at room temperature using glass pipettes (2–5 MΩ). HEKA EPC9/10 amplifiers and Pulse software were used for data acquisition. Series resistance was compensated by >70%. Experimental solutions are given under Supporting information. […]
Ionic current recordings were analyzed using HEKA software. […]
Inhibition of current (or leak-subtracted current) was calculated from steady-state current recorded in the absence (IControl) and presence of test-article (IIntervention). […]
Concentration-response data were fitted with a sigmoidal function of the form above, where YMin and YMax represent maximum and minimum current inhibition which were constrained to 100 and 0 respectively and x is the Log[DRUG (M)] based on GraphPad Prism analysis. % inhibition was calculated as in Equation 1. […]

[5] = Plasma protein binding, dog; format: in vitro ADME; conditions: read-out: Dog PPB (converted)
[6] = Plasma protein binding, human; format: in vitro ADME; conditions: read-out: Human PPB (converted)
[7] = target: T1, wild-type Kir3.4 channel (Homo sapiens, UniProt P48544); experiment: TEVC in Xenopus oocytes, wild-type Kir3.4; format: cell-based; conditions: 1 μM
T1 construct: expressed in transfected cells; host or cells: Xenopus laevis oocytes (cRNA injection)
Experimental: X. laevis oocytes were isolated and microinjected as previously described ([6]). Human Kir3.1, mouse Kir3.2, and human Kir3.4 DNA constructs were used for electrophysiology experiments. All cRNA constructs were injected in the amount of 2 ng per oocyte. Injected oocytes were incubated for 2 to 3 days at 18 °C to allow for expression. Whole-cell oocyte currents were then measured using a GeneClamp 500 amplifier (Axon Instruments). Microelectrodes had resistances of 0.5 to 1 megohm using a 3M KCl solution in 1.4% agarose. Oocytes were perfused with a low K^+ (LK) solution ND96 (2 mM KCl, 96 mM NaCl, 1 mM MgCl2, 1.8 mM CaCl2, 5 mM HEPES-Na) to establish a baseline for the recordings. Basal current was measured in a high potassium (HK) solution ND96K (96 mM KCl, 10 mM HEPES-K, 1 mM MgCl2, 1.8 mM CaCl2). To block the current, the oocyte chamber was perfused with 4 mM BaCl2 in ND96K. Only the Barium-sensitive current was used for statistical analysis. To measure the inhibitory activity of the channels, 1 μM BP-G1 in ND96K (HK) was used. Typically, oocytes were held at 0 mV (EK) and the current was monitored constantly using a ramp protocol with a command potential from −80 to +80 mV. Current amplitude was measured at the end of a 1 s sweep. All currents were analyzed when they reached steady state. Error bars in the figures represent SD (N > 4).

T1 sequence (P48544 whole entry): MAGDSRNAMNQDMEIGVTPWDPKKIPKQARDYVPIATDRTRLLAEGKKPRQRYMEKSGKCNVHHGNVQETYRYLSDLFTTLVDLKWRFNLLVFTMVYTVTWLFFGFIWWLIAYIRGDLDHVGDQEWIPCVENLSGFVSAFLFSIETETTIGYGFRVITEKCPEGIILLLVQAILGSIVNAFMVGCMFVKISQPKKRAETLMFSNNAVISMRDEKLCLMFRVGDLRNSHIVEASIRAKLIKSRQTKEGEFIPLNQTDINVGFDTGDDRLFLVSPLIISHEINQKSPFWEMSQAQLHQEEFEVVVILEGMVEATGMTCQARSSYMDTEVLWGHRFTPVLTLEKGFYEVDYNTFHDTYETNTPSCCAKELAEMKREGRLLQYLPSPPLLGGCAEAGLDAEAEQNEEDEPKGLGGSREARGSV
Sequence of Kv4.3 (Q9UK17 whole entry): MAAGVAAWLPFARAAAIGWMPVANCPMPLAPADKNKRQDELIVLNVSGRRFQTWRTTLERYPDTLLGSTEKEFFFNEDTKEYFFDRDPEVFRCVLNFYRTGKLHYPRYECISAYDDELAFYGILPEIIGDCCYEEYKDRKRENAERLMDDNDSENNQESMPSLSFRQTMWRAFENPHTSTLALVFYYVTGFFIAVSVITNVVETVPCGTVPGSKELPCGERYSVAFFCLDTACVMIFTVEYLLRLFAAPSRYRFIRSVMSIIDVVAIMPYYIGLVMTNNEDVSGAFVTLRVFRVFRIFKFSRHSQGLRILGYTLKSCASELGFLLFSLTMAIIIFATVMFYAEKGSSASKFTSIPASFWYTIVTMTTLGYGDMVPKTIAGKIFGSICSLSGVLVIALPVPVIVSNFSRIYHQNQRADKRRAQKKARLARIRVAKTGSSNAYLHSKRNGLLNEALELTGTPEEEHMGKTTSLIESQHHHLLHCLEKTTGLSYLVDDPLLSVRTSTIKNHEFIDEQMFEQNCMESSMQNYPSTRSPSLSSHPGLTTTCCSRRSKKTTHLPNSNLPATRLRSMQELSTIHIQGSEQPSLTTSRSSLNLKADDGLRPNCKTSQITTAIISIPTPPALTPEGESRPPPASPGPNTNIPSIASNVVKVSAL

Cc1cc(CO)nc2cc3c(cc12)OC(C)(C)[C@H](O)[C@H]3NCCc1ccccc1 [BP-G1, (3R,4S)-7-(hydroxymethyl)-2,2,9-trimethyl-4-(2-phenylethylamino)-3,4-dihydropyrano[2,3-g]quinolin-3-ol]
IC50 [1]: 13 µM
% Specific Binding at 10 µM [1]: 55.6%
% Specific Binding at 10 µM ([1]; listed as Benzopyran-G1): 55.567%
Ki ([1]; read-out: Ki, α1 (non-selective)): 3.5 µM
time to reversal of carbachol’s effects on the heart rate [2]: ≤ 5 min
RR interval 5 min after compound, given about 10 min after carbachol ([2]; anesthetized mice, mean ± SD, N = 3): 155.4 ± 5.5 ms
% Specific Binding at 10 µM [3]: 40.267% and < 50%
IC50 [4]: 11.3 µM
fraction unbound [5]: 0.06
fraction unbound [6]: 0.03
inhibition of wild-type Kir3.4 [7]: did not inhibit; also recorded: showed no block
